The values below come from patent US9688669B2, “Oxazolidinones as modulators of mGluR5” (BRISTOL-MYERS SQUIBB COMPANY, priority 2013, dated 2017).

For this assay, the target named is human mGluR5A (Homo sapiens (Human), UniProt P41594). The experiment in a line: mGluR5 FLIPR Assay. It counts as cell-based. Particulars: positive modulator activity, HEK293 (ZF) cells with human mGluR5A and rat GLAST, Ca++ response to ~EC10 l-glutamate. As to the method: HEK293 (ZF) cells stably transfected with human mGluR5A (pIRES neo) and the rat glutamate-aspartate transporter (GLAST; pIRES puro) are grown in a monolayer culture at 37° C. in 5% CO2 and fed with Minimum Essential Medium (MEM) supplemented with 10% dialysed fetal bovine serum. […] Plates are incubated in dye at 37° C. in 5% CO2 for 60 minutes prior to delivery of test compounds in assay buffer. Test compounds are incubated with cells in the presence of dye for 10 minutes prior to being read on the FLIPR platform (Molecular Devices). A Ca^++ signal is induced in the assay plates via the delivery of an ˜EC10 concentration of the endogenous agonist 1-glutamate; images are acquired at 1 Hz for 100 seconds post-delivery of agonist stimulus. Positive modulator activity (i.e. the ability of test compounds to increase the Ca^++ response to a sub-maximal concentration of agonist) is normalized to a saturating concentration of a known mGluR5 PAM run in each assay plate. An EC50 concentration of test compounds is derived from 4-parameter logistic curve fits of transformed fluoresence data via proprietary software suite.
human mGluR5A, sequence (P41594 other isoform, or with tags, fused parts or gaps): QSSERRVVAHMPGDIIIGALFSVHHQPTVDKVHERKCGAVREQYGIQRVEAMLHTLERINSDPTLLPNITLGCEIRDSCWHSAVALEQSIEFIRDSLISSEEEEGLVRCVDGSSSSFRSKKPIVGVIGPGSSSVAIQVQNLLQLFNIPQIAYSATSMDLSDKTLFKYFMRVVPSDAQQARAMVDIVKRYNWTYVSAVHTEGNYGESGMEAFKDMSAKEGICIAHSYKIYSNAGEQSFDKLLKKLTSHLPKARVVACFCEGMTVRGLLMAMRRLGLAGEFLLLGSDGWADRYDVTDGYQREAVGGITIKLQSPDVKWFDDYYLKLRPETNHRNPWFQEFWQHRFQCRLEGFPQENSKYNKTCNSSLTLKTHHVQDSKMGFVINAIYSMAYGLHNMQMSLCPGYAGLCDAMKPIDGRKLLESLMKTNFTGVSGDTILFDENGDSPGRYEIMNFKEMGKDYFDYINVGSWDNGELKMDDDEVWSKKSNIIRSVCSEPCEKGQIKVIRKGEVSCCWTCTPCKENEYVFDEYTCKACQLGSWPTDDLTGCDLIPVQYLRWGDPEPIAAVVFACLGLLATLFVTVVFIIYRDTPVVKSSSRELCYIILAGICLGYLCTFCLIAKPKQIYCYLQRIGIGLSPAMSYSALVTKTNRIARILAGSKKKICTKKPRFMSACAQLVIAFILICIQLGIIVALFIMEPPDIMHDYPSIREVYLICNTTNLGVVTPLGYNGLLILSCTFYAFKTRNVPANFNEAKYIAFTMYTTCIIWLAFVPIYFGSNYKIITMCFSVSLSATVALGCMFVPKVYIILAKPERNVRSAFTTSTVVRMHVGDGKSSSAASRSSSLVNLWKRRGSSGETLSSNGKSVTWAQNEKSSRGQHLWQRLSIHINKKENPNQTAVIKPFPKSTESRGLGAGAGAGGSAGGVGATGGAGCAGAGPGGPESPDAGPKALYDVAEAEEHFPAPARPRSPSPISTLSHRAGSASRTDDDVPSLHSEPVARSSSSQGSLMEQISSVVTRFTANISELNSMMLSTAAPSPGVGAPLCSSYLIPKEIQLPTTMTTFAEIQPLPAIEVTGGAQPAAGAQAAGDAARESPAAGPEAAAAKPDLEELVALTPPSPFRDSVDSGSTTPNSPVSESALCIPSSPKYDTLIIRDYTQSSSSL
The EC50 is the concentration giving half of the maximal effect. The low end stands for a more potent agent, the high end for a less potent agent. In the case of `O=C1N[C@H](c2cncc(C#CCC3CCOC3)c2)[C@@H](c2cccc(F)c2)O1` (some centres unmarked) [Example 65], the EC50 came out at 0.0147 µM.
`O=C1N[C@H](c2cncc(C#CCC3CCOC3)c2)[C@@H](c2cccc(F)c2)O1` (some centres unmarked) [Example 66] yielded an EC50 of 0.0152 µM.
`O=C1N[C@H](c2cncc(C#CCCOCC(F)(F)F)c2)[C@@H](c2cccc(F)c2)O1` [Example 67] yielded an EC50 of 0.0886 µM.
With `O=C1N[C@H](c2cncc(C#CCC3COC3)c2)[C@@H](c2cccc(F)c2)O1` [Example 68] the figure was 0.932 µM; with `O=C1N[C@H](c2cncc(C#CCC3CCO3)c2)[C@@H](c2cccc(F)c2)O1` (some centres unmarked) [Example 69], more than 1.61 µM.
In turn, `O=C1N[C@H](c2cncc(C#CCN3CC(F)(F)C3)c2)[C@@H](c2cccc(F)c2)O1` [Example 70, (4R,5R)-4-(5-(3-(3,3-Difluoroazetidin-1-yl)prop-1-yn-1-yl)pyridin-3-yl)-5-(3-fluorophenyl)oxazolidin-2-one] showed a concentration for a half-maximal effect (EC50) of 0.0296 µM.
With `Cc1cn(CC#Cc2cncc([C@H]3NC(=O)O[C@@H]3c3cccc(F)c3)c2)cn1` [Example 71, (4R,5R)-5-(3-Fluorophenyl)-4-(5-(3-(4-methyl-M-imidazol-1-yl)prop-1-yn-1-yl)pyridin-3-yl)oxazolidin-2-one] the figure was more than 3.23 µM; with `O=C1N[C@H](c2cncc(C#CC(O)CC3CC3)c2)[C@@H](c2cccc(F)c2)O1` (stereo partly drawn) [Example 72, (4R,5R)-4-(5-(4-Cyclopropyl-3-hydroxybut-1-yn-1-yl)pyridin-3-yl)-5-(3-fluorophenyl)oxazolidin-2-one], 0.0166 µM.
`CC1CC1C(O)C#Cc1cncc([C@H]2NC(=O)O[C@@H]2c2cccc(F)c2)c1` (some centres unmarked) [Example 75] displayed a 50% effective concentration (EC50) of 0.129 µM.
The same measure for `O=C1N[C@H](c2cncc(C#CC(O)C3CC3(F)F)c2)[C@@H](c2cccc(F)c2)O1` (some centres unmarked) [Example 76]: 0.334 µM; for `CC1(C)CC1C(O)C#Cc1cncc([C@H]2NC(=O)O[C@@H]2c2cccc(F)c2)c1` (some centres unmarked) [Example 77]: more than 1.61 µM; for `CN(C)CC#Cc1cncc([C@H]2NC(=O)O[C@@H]2c2cccc(F)c2)c1` [Example 79, (4R,5R)-4-(5-(3-(Dimethylamino)prop-1-yn-1-yl)pyridin-3-yl)-5-(3-fluorophenyl)oxazolidin-2-one]: 0.463 µM.
The molecule `COc1cccc([C@H]2OC(=O)N[C@@H]2c2cccc(C#CC3CC3)c2)c1` [Example 80, (4R,5R)-4-(3-(Cyclopropylethynyl)phenyl)-5-(3-methoxyphenyl)oxazolidin-2-one] showed an EC50 of more than 3 µM.
As to `O=C1N[C@H](c2cncc(C#CC3CCCCC3)c2)[C@@H](c2cc(F)ccc2F)O1` [Example 81, (4R,5R)-4-(5-(Cyclohexylethynyl)pyridin-3-yl)-5-(2,5-difluorophenyl)oxazolidin-2-one], the EC50 was 0.351 µM.
With `O=C1N[C@H](c2cncc(C#CC34CCC(CC3)CC4)c2)[C@@H](c2cc(F)ccc2F)O1` [Example 82, (4R,5R)-4-(5-(Bicyclo[2.2.2]octan-1-ylethynyl)pyridin-3-yl)-5-(2,5-difluorophenyl)oxazolidin-2-one] the figure was 1.31 µM; with `O=C1N[C@H](c2cncc(C#CC34CCC(CC3)CC4)c2)[C@@H](c2cccc(F)c2)O1` [Example 84, (4R,5R)-4-(5-(Bicyclo[2.2.2]octan-1-ylethynyl)pyridin-3-yl)-5-(3-fluorophenyl)oxazolidin-2-one], 3.67 µM; with `O=C1N[C@H](c2cncc(C#CC3(O)CCCCC3)c2)[C@@H](c2cccc(F)c2)O1` [Example 85, (4R,5R)-5-(3-Fluorophenyl)-4-(5-((1-hydroxycyclohexyl)ethynyl)pyridin-3-yl)oxazolidin-2-one], 1.05 µM.
`CC1(C#Cc2cncc([C@H]3NC(=O)O[C@@H]3c3cccc(F)c3)c2)CCCCC1` [Example 87, (4R,5R)-5-(3-Fluorophenyl)-4-(5-((1-methylcyclohexyl)ethynyl)pyridin-3-yl)oxazolidin-2-one] displayed an EC50 of more than 10.8 µM.
With `O=C1N[C@H](c2cncc(C#CC34CCCCC3C4)c2)[C@@H](c2cccc(F)c2)O1` (stereo partly drawn) [Example 90, (4R,5R)-4-(5-(Bicyclo[4.1.0]heptan-1-ylethynyl)pyridin-3-yl)-5-(3-fluorophenyl)oxazolidin-2-one] the figure was 0.377 µM.
With `O=C1N[C@H](c2cncc(C#CC3(F)CCCCC3)c2)[C@@H](c2cccc(F)c2)O1` [Example 91, (4R,5R)-4-(5-((1-Fluorocyclohexyl)ethynyl)pyridin-3-yl)-5-(3-fluorophenyl)oxazolidin-2-one] the figure was 0.0962 µM.
In the case of `O=C1N[C@H](c2cncc(C#CC3CCC(F)(F)CC3)c2)[C@@H](c2cccc(F)c2)O1` [Example 92, (4R,5R)-4-(5-((4,4-Difluorocyclohexyl)ethynyl)pyridin-3-yl)-5-(3-fluorophenyl)oxazolidin-2-one], a half-maximal effect (EC50) was put at 0.0509 µM.
Take `O=C1N[C@H](c2cncc(C#CC3CCOCC3)c2)[C@@H](c2cc(F)ccc2F)O1` [Example 100, (4R,5R)-5-(2,5-Difluorophenyl)-4-(5-((tetrahydro-2H-pyran-4-yl)ethynyl)pyridin-3-yl)oxazolidin-2-one]: the EC50 stood at 0.282 µM.
Turning to `N#Cc1cccc([C@H]2OC(=O)N[C@@H]2c2cncc(C#CC3CC(F)(F)C3)c2)c1` [Example 107, 3-((4R,5R)-4-(5-((3,3-Difluorocyclobutyl)ethynyl)pyridin-3-yl)-2-oxooxazolidin-5-yl)benzonitrile], the 50% effective concentration (EC50) is 0.28 µM.
The same measure for `O=C1N[C@H](c2cc(C#CC3CC(F)(F)C3)cnc2F)[C@@H](c2cccc(F)c2)O1` [Example 111, (4R,5R)-4-(5-((3,3-Difluorocyclobutyl)ethynyl)-2-fluoropyridin-3-yl)-5-(3-fluorophenyl)oxazolidin-2-one]: 0.104 µM; for `O=C1N[C@H](c2cc(C#CC3CC(F)(F)C3)ccn2)[C@@H](c2ccccc2)O1` [Example 112, (4R,5R)-4-(4-((3,3-Difluorocyclobutyl)ethynyl)pyridin-2-yl)-5-phenyloxazolidin-2-one]: more than 3.23 µM; for `O=C1N[C@H](c2cccc(C#CC3CC(F)(F)C3)n2)[C@@H](c2ccccc2)O1` [Example 113, (4R,5R)-4-(6-((3,3-Difluorocyclobutyl)ethynyl)pyridin-2-yl)-5-phenyloxazolidin-2-one]: more than 3.23 µM.
In turn, `O=C1N[C@H](c2ccnc(C#CC3CC(F)(F)C3)c2)[C@@H](c2ccccc2)O1` [Example 114, (4R,5R)-4-(2-((3,3-Difluorocyclobutyl)ethynyl)pyridin-4-yl)-5-phenyloxazolidin-2-one] registered an EC50 of more than 3.23 µM.
Regarding `COc1cccc([C@H]2OC(=O)N[C@@H]2c2cccc(C#CC3CC(F)(F)C3)c2)c1` [Example 116, (4R,5R)-4-(3-((3,3-Difluorocyclobutyl)ethynyl)phenyl)-5-(3-methoxyphenyl)oxazolidin-2-one], the half-maximal effective concentration (EC50) is more than 1.61 µM.
With `O=C1N[C@H](c2cncc(C#CC3CC(F)(F)C3)c2)[C@@H](c2ccc(F)c(F)c2F)O1` [Example 118, (4R,5R)-4-(5-((3,3-Difluorocyclobutyl)ethynyl)pyridin-3-yl)-5-(2,3,4-trifluorophenyl)oxazolidin-2-one], the EC50 was found to be 0.0805 µM.
`O=C1N[C@H](c2cncc(C#CC3CC(F)(F)C3)c2)[C@@H](c2ccc(F)c(F)c2)O1` [Example 119, (4R,5R)-4-(5-((3,3-Difluorocyclobutyl)ethynyl)pyridin-3-yl)-5-(3,4-difluorophenyl)oxazolidin-2-one] had an EC50 of 0.0216 µM.
For `O=C1N[C@H](c2cncc(C#CC3CC(F)(F)C3)c2)[C@@H](c2cc(F)c(F)cc2F)O1` [Example 122, (4R,5R)-4-(5-((3,3-Difluorocyclobutyl)ethynyl)pyridin-3-yl)-5-(2,4,5-trifluorophenyl)oxazolidin-2-one], the EC50 came to 0.0586 µM.
`O=C1N[C@H](c2cncc(C#CC3CC3)c2)[C@@H](c2cccc(Cl)c2Cl)O1` [Example 125, (4R,5R)-4-(5-(Cyclopropylethynyl)pyridin-3-yl)-5-(2,3-dichlorophenyl)oxazolidin-2-one] displayed an EC50 of 0.179 µM.
